Patent publication US8772304B2, “Benzimidazole inhibitors of leukotriene production” (Boehringer Ingelheim International GmbH, priority 2010, dated 2014)

Assays:
[1] = target: recombinant human FLAP protein (Homo sapiens (Human), UniProt P20292); assay: FLAP binding assay (Scintillation Proximity Assay, displacement of iodinated FLAP inhibitor); conditions: displacement of [125I]L-691,831; membranes of sf9 cells expressing recombinant human FLAP; read-out: hFLAP binding IC50
Description: Compounds are assessed for the ability to bind to FLAP in a binding assay that measures compound-specific displacement of an iodinated (^125I) FLAP inhibitor via a Scintillation Proximity Assay format (adapted from S. Charleson et al., Mol. Pharmacol., 1992, 41, 873-879).
Cell pellets produced from sf9 insect cells expressing recombinant human FLAP protein are resuspended in buffer A [15 mM Tris-HCl (pH 7.5), 2 mM MgCl2, 0.3 mM EDTA, 1 mM PMSF]. The cells are lysed with a Dounce homogenizer and the material is centrifuged at 10,000×g for 10 minutes. The supernatant is then collected and centrifuged at 100,000×g for 60 minutes. To prepare membrane protein for an assay, an aliquot of the 100,000×g pellet is resuspended in 1 ml of buffer A, Dounce homogenized, and finally subjected to polytron mixing (30 seconds). Membrane protein (25 μl, 5 μg) is mixed with WGA SPA beads (Amersham) and stirred for 1 h. […] (final concentrations: beads, 200 μg/well; protein, 5 μg/well; [^125I] probe, 0 08 nM/well (17 nCi/well). The plates are shaken for 2 h before reading on a Microbeta plate reader. Non-specific binding is determined by the addition of 10 μM cold L-691,831 compound.

[2] = system: synthesis of LTB4 in human whole blood; assay: human whole blood LTB4 production inhibition assay; type: cell-based; conditions: heparinized human whole blood, calcimycin 20 μM stimulation, plasma LTB4; read-out: hWB IC50
Description: Compounds are additionally tested in a human whole blood assay to determine their ability to inhibit the synthesis of LTB4 in a cellular system. Compounds are combined with heparinized human whole blood and incubated for 15 minutes at 37° C. Calcimycin (20 μM final, prepared in phosphate-buffered saline, pH 7.4) is then added and the mixture is incubated for another 30 minutes at 37° C. The samples are centrifuged for 5 min at low speed (1500×g) and the plasma layer is removed. Plasma LTB4 concentrations are then measured using an antibody-based homogenous time-resolved fluorescence method (CisBio, Bedford, Mass.).

recombinant human FLAP protein, sequence (P20292 whole entry): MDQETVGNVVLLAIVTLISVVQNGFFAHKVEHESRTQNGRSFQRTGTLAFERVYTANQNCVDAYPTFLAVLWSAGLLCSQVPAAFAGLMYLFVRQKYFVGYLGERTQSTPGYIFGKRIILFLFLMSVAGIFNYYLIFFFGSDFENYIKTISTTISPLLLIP

SMILES	IC50 [1] [nM]	IC50 [2] [nM]
CC(C)(C)Oc1cccc(-c2nc3cc(-c4cnc(N)nc4)ccc3n2C(C)(C)C)n1 [Example 13, 5-[2-(6-tert-Butoxy-pyridin-2-yl)-1-tert-butyl-1H-benzimidazol-5-yl]-pyrimidin-2-ylamine]	51	–
CNC(=O)c1ccc(C#N)nc1-c1nc2cc(-c3cnc(N)nc3)ccc2n1C(C)(C)C [Example 10, 2-[5-(2-Amino-pyrimidin-5-yl)-1-tert-butyl-1H-benzimidazol-2-yl]-6-cyano-N-methyl-nicotinamide]	138	422
Cc1ncn(-c2ccc(C#N)nc2-c2nc3cc(-c4cnc(N)nc4)ccc3n2C2(C)CCC2)n1 [Example 5, 6-[5-(2-Amino-pyrimidin-5-yl)-1-(1-methyl-cyclobutyl)-1H-benzimidazol-2-yl]-5-(3-methyl-1,2,4-triazol-1-yl)-pyridine-2-carbonitrile]	29	256
CNC(=O)c1cccnc1-c1nc2cc(-c3cnc(N)nc3)ccc2n1C(C)(C)C [Example 8, 2-[5-(2-Amino-pyrimidin-5-yl)-1-tert-butyl-1H-benzimidazol-2-yl]-N-methyl-nicotinamide]	620	1700
Cc1ncnn1-c1ccc(C#N)nc1-c1nc2cc(-c3cnc(N)nc3)ccc2n1C1(C)CCC1 [Example 6, 6-[5-(2-Amino-pyrimidin-5-yl)-1-(1-methyl-cyclobutyl)-1H-benzimidazol-2-yl]-5-(5-methyl-1,2,4-triazol-1-yl)-pyridine-2-carbonitrile]	86	894
CC(C)(C)n1c(-c2cccc(F)n2)nc2cc(-c3cnc(NCc4cccc(F)n4)nc3)ccc21 [Example 15, {5-[1-tert-Butyl-2-(6-fluoro-pyridin-2-yl)-1H-benzimidazol-5-yl]-pyrimidin-2-yl}-(6-fluoro-pyridin-2-ylmethyl)-amine]	870	–
CC(C)(C)n1c(-c2ccccn2)nc2cc(-c3cnc(N)nc3)ccc21 [Example 12, 5-(1-tert-Butyl-2-pyridin-2-yl-1H-benzimidazol-5-yl)-pyrimidin-2-ylamine]	700	–
CC(C)(C)n1c(-c2nc(C3CC3)ccc2-n2cncn2)nc2cc(-c3cnc(N)nc3)ccc21 [Example 4, 5-[1-tert-Butyl-2-(6-cyclopropyl-3-1,2,4-triazol-1-yl-pyridin-2-yl)-1H-benzimidazol-5-yl]-pyrimidin-2-ylamine]	13	140
CC(C)(C)n1c(-c2cccc(F)n2)nc2cc(-c3cnc(N)nc3)ccc21 [Example 14, 5-[1-tert-Butyl-2-(6-fluoro-pyridin-2-yl)-1H-benzimidazol-5-yl]-pyrimidin-2-ylamine]	279	–
COC(=O)c1cccnc1-c1nc2cc(-c3cnc(N)nc3)ccc2n1C(C)(C)C [Example 7, 2-[5-(2-Amino-pyrimidin-5-yl)-1-tert-butyl-1H-benzimidazol-2-yl]-nicotinic acid methyl esler]	540	3100
COc1cccc(-c2nc3cc(-c4cnc(N)nc4)ccc3n2C(C)(C)C)n1 [Example 11, 5-[1-tert-Butyl-2-(6-methoxy-pyridin-2-yl)-1H-benzimidazol-5-yl]-pyrimidin-2-ylamine]	46	–
CC(C)(C)n1c(-c2nc(C#N)ccc2-n2cncn2)nc2cc(-c3cnc(N)nc3)ccc21 [Example 1, 6-[5-(2-Amino-pyrimidin-5-yl)-1-tert-butyl-1H-benzimidazol-2-yl]-5-1,2,4-triazol-1-yl-pyridine-2-carbonitrile]	7.1	30
Cc1ncn(-c2ccc(C#N)nc2-c2nc3cc(-c4cnc(N)nc4)ccc3n2C(C)(C)C)n1 [Example 2, 6-[5-(2-Amino-pyrimidin-5-yl)-1-tert-butyl-1H-benzimidazol-2-yl]-5-(3-methyl-1,2,4-triazol-1-yl)-pyridine-2-carbonitrile]	4.2	36
Cc1ncnn1-c1ccc(C#N)nc1-c1nc2cc(-c3cnc(N)nc3)ccc2n1C(C)(C)C [Example 3, 6-[5-(2-Amino-pyrimidin-5-yl)-1-tert-butyl-1H-benzimidazol-2-yl]-5-(5-methyl-1,2,4-triazol-1-yl)-pyridine-2-carbonitrile]	5.9	89

Next, values leading:

IC50 [1] [nM]	IC50 [2] [nM]	SMILES
58	58	COc1cc(-c2nc3cc(-c4cnc(N)nc4)ccc3n2C(C)(C)C)c(F)cn1 [Example 17, 5-[1-tert-Butyl-2-(5-fluoro-2-methoxy-pyridin-4-yl)-1H-benzimidazol-5-yl]-pyrimidin-2-ylamine]
10	75	CC(C)(C)n1c(-c2cc(C#N)cnc2-n2cncn2)nc2cc(-c3cnc(N)nc3)ccc21 [Example 26, 5-[5-(2-Amino-pyrimidin-5-yl)-1-tert-butyl-1H-benzimidazol-2-yl]-6-1,2,4-triazol-1-yl-nicotinonitrile]
542	–	CC(C)(C)n1c(-c2cccnc2)nc2cc(-c3cnc(N)nc3)ccc21 [Example 31, 5-(1-tert-Butyl-2-pyridin-3-yl-1H-benzimidazol-5-yl)-pyrimidin-2-ylamine]
34	–	CCOc1ncccc1-c1nc2cc(-c3cnc(N)nc3)ccc2n1C(C)(C)C [Example 33, 5-[1-tert-Butyl-2-(2-ethoxy-pyridin-3-yl)-1H-benzimidazol-5-yl]-pyrimidin-2-ylamine]
960	–	COc1cccnc1-c1nc2cc(-c3cnc(N)nc3)ccc2n1C(C)(C)C [Example 16, 5-[1-tert-Butyl-2-(3-methoxy-pyridin-2-yl)-1H-benzimidazol-5-yl]-pyrimidin-2-ylamine]
220	–	COc1ncccc1-c1nc2cc(-c3cnc(N)nc3)ccc2n1C(C)(C)C [Example 32, 5-[1-tert-Butyl-2-(2-methoxy-pyridin-3-yl)-1H-benzimidazol-5-yl]-pyrimidin-2-ylamine]
300	–	COc1cncc(-c2nc3cc(-c4cnc(N)nc4)ccc3n2C(C)(C)C)c1 [Example 29, 5-[1-tert-Butyl-2-(5-methoxy-pyridin-3-yl)-1H-benzimidazol-5-yl]-pyrimidin-2-ylamine]
17	194	Cc1ccc(-c2nc3cc(-c4cnc(N)nc4)ccc3n2C(C)(C)C)c(-n2cncn2)n1 [Example 28, 5-[1-tert-Butyl-2-(6-methyl-2-1,2,4-triazol-1-yl-pyridin-3-yl)-1H-benzimidazol-5-yl]-pyrimidin-2-ylamine]
450	449	CC(C)(C)n1c(-c2ccncc2)nc2cc(-c3cnc(N)nc3)ccc21 [Example 18, 5-(1-tert-Butyl-2-pyridin-4-yl-1H-benzimidazol-5-yl)-pyrimidin-2-ylamine]
180	–	CC(C)(C)n1c(-c2ccc(N3CCOCC3)nc2)nc2cc(-c3cnc(N)nc3)ccc21 [Example 30, 5-[1-tert-Butyl-2-(6-morpholin-4-yl-pyridin-3-yl)-1H-benzimidazol-5-yl]-pyrimidin-2-ylamine]
23	242	Cc1ncnn1-c1ncccc1-c1nc2cc(-c3cnc(N)nc3)ccc2n1C(C)(C)C [Example 24, 5-{1-tert-Butyl-2-[2-(5-methyl-1,2,4-triazol-1-yl)-pyridin-3-yl]-1H-benzimidazol-5-yl}-pyrimidin-2-ylamine]
20	253	CC(C)(C)n1c(-c2cc(F)cnc2-n2cncn2)nc2cc(-c3cnc(N)nc3)ccc21 [Example 21, 5-[1-tert-Butyl-2-(5-fluoro-2-1,2,4-triazol-1-yl-pyridin-3-yl)-1H-benzimidazol-5-yl]-pyrimidin-2-ylamine]
3.2	116	CC(C)(C)n1c(-c2cc(Cl)cnc2-n2cncn2)nc2cc(-c3cnc(N)nc3)ccc21 [Example 22, 5-[1-tert-Butyl-2-(5-chloro-2-1,2,4-triazol-1-yl-pyridin-3-yl)-1H-benzimidazol-5-yl]-pyrimidin-2-ylamine]
23	667	CCC(C)(C)n1c(-c2cc(Br)cnc2-n2cncn2)nc2cc(-c3cnc(N)nc3)ccc21 [Example 27, 5-[2-(5-Bromo-2-1,2,4-triazol-1-yl-pyridin-3-yl)-1-(1,1-dimethyl-propyl)-1H-benzimidazol-5-yl]-pyrimidin-2-ylamine]
19	447	CC(C)(C)n1c(-c2cccnc2-n2cncn2)nc2cc(-c3cnc(N)nc3)ccc21 [Example 20, 5-[1-tert-Butyl-2-(2-1,2,4-triazol-1-yl-pyridin-3-yl)-1H-benzimidazol-5-yl]-pyrimidin-2-ylamine]
4	81	CC(C)(C)n1c(-c2cc(Br)cnc2-n2cncn2)nc2cc(-c3cnc(N)nc3)ccc21 [Example 23, 5-[2-(5-Bromo-2-1,2,4-triazol-1-yl-pyridin-3-yl)-1-tert-butyl-1H-benzimidazol-5-yl]-pyrimidin-2-ylamine]
